7 molecules from BindingDB's records for PubMed 36325400 (Prince Sattam Bin Abdulaziz University, 2022) can be followed below.

Chain of Phospholipase A2 group V (Homo sapiens) (P39877 whole entry, looked up): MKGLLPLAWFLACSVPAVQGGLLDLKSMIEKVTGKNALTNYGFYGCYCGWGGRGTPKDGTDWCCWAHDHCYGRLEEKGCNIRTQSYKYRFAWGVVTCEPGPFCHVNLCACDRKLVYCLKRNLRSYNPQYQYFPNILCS

The experiment has as its target Phospholipase A2 group V (Homo sapiens) (UniProt P39877). As to the kind of experiment: Inhibition of recombinant human sPLA2-V.
As usually defined, the IC50 is the concentration at which inhibition is half-maximal. For `COc1ccnc(Nc2n[nH]c(N)c2C#N)c1`, the IC50 is 3.1 µM.
With `COc1ccnc(Nc2nn3c(SC)c(C#N)c(N)nc3c2C#N)c1` the figure was 2.6 µM; with `COc1ccnc(Nc2nn3c(SC)c(C#N)c(O)nc3c2C#N)c1`, 1 µM.
Consider `COc1ccnc(Nc2nn3c(C)cc(C)nc3c2C#N)c1`, for which the IC50 is 3.2 µM.
With `CCOc1cc(C)nc2c(C#N)c(Nc3cc(OC)ccn3)nn12` the figure was 1.7 µM.
In the case of `CCOc1cc(N)n2nc(Nc3cc(OC)ccn3)c(C#N)c2n1`, the IC50 came out at 3.2 µM.
The same measure for `C[C@@H]1C[C@H]2[C@@H]3CCC4=CC(=O)C=C[C@]4(C)[C@@]3(F)[C@@H](O)C[C@]2(C)[C@@]1(O)C(=O)CO` [dexamethasone (tetramethyl-rhodamine conjugated )]: 0.59 µM.
